In PMC5578202, “Bioaccessibility, Intestinal Permeability and Plasma Stability of Isorhamnetin Glycosides from Opuntia ficus-indica (L.)” (International Journal of Molecular Sciences, 2017):
Like-named read-outs stand apart in the source and are kept apart here.

What was measured:
[1] = tested on: Caco-2 cell monolayer; conditions: cited from earlier work
[2] = cited from earlier work
[3] = Permeability across Caco-2/HT-29 (75:25) co-culture monolayer; format: in vitro ADME, human; conditions: human, pH 7.4
Procedure: (§1) Caco-2 and HT-29 cell lines were obtained from ATCC (American Tissue Culture Collection, Rockville, MD, USA). Cells were cultured in DMEM-F12 supplemented with 10% fetal bovine serum and were maintained at 37 °C in 5% CO2. Before the start of the permeability experiments, the cytotoxicity of isorhamnetin and the O. ficus-indica extract on Caco-2/HT-29 (75:25) co-culture were tested to ensure that the viability of the cells was over 90%. Permeability experiments were performed according to Xie et al. and Hubatsch et al. with slight modifications. Caco-2 and HT-29 co-culture cell monolayer (75:25) were seeded on 6-well transwell plates, with inserts having a polycarbonate membrane with a surface area of 4.71 cm^2 and a pore diameter of 0.4 µm (Costar, Corning, NY, USA) at a final seeding density of 1 × 10^6 cells/insert, cultured for 21 days. Caco-2 cell monolayers were washed with warm HBSS medium (pH 7.4) and then digested samples of isorhamnetin aglycone or O. ficus-indica extract were added to the apical side (AP: 1.5 mL), whereas the receiving compartment or basolateral side (BL: 2.5 mL) contained the corresponding volume of HBSS. Plates with transwell inserts were incubated at 37 °C in an orbital shaking incubator at 100 rpm. Aliquots of 1 mL were withdrawn from both compartments at 15, 30, 60 and 120 min, and fresh HBSS was added to replace the withdrawn volume. Samples were immediately frozen and preserved at −20 °C until HPLC analysis. All experiments were performed in triplicate.
(§2) The apparent permeability coefficient (Papp) was calculated from the cumulative amount permeated versus the time profile according the following Equation (1): Papp = (dQ/dt) × (V/A × C0) (1) where dQ/dt is the change in drug concentration in the receiver solution (µM/s), V represents the volume of the solution in the receiving compartment (mL), A denotes the membrane surface area (cm^2), and C0 is the initial concentration in the donor compartment (µM).
(§3) The integrity of the monolayers was measured at the beginning and the end of the experiment using the paracellular permeability of lucifer yellow (LY). Fluorescence was measured at 530 nm (emission) and 485 nm (excitation) using a microplate reader (Synergy HT, BioTek, Winooski, VM). The data from membranes displaying an LY apparent permeability coefficient (Papp) > 1 × 10^−6 cm/s were excluded.

[4] = tested on: Caco-2/HT-29 cell monolayer; experiment: as above; format: in vitro ADME, human; conditions: for Efflux ratio [Papp(BL-AP)/Papp(AP-BL)]: Caco-2/HT-29 (Figure 2b); for Apparent permeability coefficient apical to basolateral, Papp(AP-BL): Caco-2/HT-29 co-culture, digested samples
Procedure: as §1, §2, §3

[5] = Simulated in vitro digestion (oral, gastric, intestinal): recovery percentage / bioaccessibility; format: in vitro ADME; conditions: human-simulated digestion
Procedure: The simulated in vitro digestion model was performed based on the methodology described by Garrett et al., with some modifications. Isorhamnetin aglycones and O. ficus-indica extract were subjected to digestion in triplicate. A three-step procedure was applied to simulate the digestive processes in the mouth, stomach, and small intestine. The digestion started with an amount of extract that contained an equivalent of 10 mg of isorhamnetin (60 mg) or 10 mg of isorhamnetin standard. An α-amylase solution (75 Units/mL) was added to 20 mL of solution, adjusted to pH 6.9, which was incubated for 10 min. This mixture was shaken using a VWR® Incubating orbital shaker (Thorofare, NJ, USA) for 10 min at 37 °C and 55 rpm. The gastric digestion started by adjusting the pH to 2 with 1 M HCl and, after, 2 mL of porcine-pepsin solution was added (40 mg/mL in 0.1 M HCl). This mixture was shaken in an incubator for 1 h at 37 °C and 95 rpm. For the intestinal digestion, the solution was previously adjusted to pH 5.3 with 0.9 M NaHCO3 and then a mixture of bile salts and pancreatin (6 mL containing porcine-pancreatin (2 mg/mL), and bile salts (12 mg/mL) dissolved in a NaHCO3 solution (100 mM), were added. Concentrations of pancreatin and bile extract in the final solution were 0.4 and 2.4 mg/mL, respectively. Then, the solution was adjusted to pH 7.5 by adding 1N NaOH. The mixture was shaken in an incubator for 2 h at 37 °C and 95 rpm. The enzyme reaction was inactivated by placing the sample in a hot water bath (80 °C for 2 min). At the end of the process, the digested samples were centrifuged at 13,000× g and 4 °C for 5 min (Thermo Scientific SL 16R centrifuge, Osterode, Germany). The resulting supernatant, which was considered the bioaccessible or absorbable fraction, was recovered. The recovery percentage of each compound was calculated based on the concentration in the supernatant recovered after each phase (oral, gastric, and intestinal) of the in vitro digestion. This fraction was also tested for permeability and potential bioavailability of the isorhamnetin glycosides present in the O. ficus-indica extract.

[6] = Plasma stability / pharmacokinetics after intravenous dose in rats; parameters: species or system rat; conditions: male, Wistar, in vivo, intravenous dose 2 mg/kg
Procedure: Twenty-seven male Wistar rats, weighing approximately 200 g (eight weeks old), were divided in nine groups of three animals each. One group was taken as a control and received only a saline solution through the caudal vein. Four groups received an intravenous dose (2 mg/kg) of the O. ficus-indica extract and the last four groups received the commercial isorhamnetin standard. The dosage was determined based on results previously reported by Antunes-Ricardo et al.. Animals were anaesthetized with ketamine/xilazyne (60 mg/kg; 10 mg/kg), and then blood was extracted by intracardiac puncture at different sampling times (0.25, 0.5, 1 and 1.5 h). This procedure was randomized to avoid any bias results. After blood extraction, the animals were sacrificed by cervical dislocation. Plasma was obtained as previously described (see Section 4.6) and the samples were stored at −20 °C until analysis.
Plasma samples were spiked with 25 µL of quercetin (30 µg/mL) as an internal standard. Then, plasma samples were submitted to an acid hydrolysis with 2 M HCl for 180 min at 80 °C. Then, samples were extracted with 100% methanol (10:1, v/v), centrifuged, and the resulting supernatants were quantified by HPLC-PDA. The area under the concentration-time curve (AUC0−1.5 h) was calculated based on the linear trapezoidal method. The elimination half-life (t1/2) was determined by linear regression of the terminal portion of the plasma concentration-time data. The plasma clearance (CLplasma) was calculated by multiplying the volume of distribution, Vd, by the elimination constant, Kel, according to the following Equation (3): CLplasma: Vd × Kel (3)

[7] = parameters: method as in Duan et al. [24]; conditions: ref Duan et al. [24]; cited from earlier work
[8] = cited from earlier work; for Recovery after intestinal digestion: ref Ydjedd et al. [40]
[9] = Caco-2 monolayer, ref Xie et al. [47]
[10] = intestinal phase, pH 7.5, pancreatin and bile salts

O=c1c(O[C@@H]2O[C@H](CO)[C@H](O)[C@H](O)[C@H]2O)c(-c2ccc(O)c(O)c2)oc2cc(O)cc(O)c12 [Quercetin-3-galactoside]
Efflux ratio compared with quercetin-3-glucoside ([1]; ref Duan et al. [24]): higher efflux ratio | Concentration in plasma ([2]; after ingestion of cranberry juice, ref Wang et al. [55]): 10 to 15 ng/mL

COc1cc(-c2oc3cc(O)cc(O)c3c(=O)c2O)ccc1O [I, isorhamnetin]
efflux ratio at 120 min ([3]; Caco-2/HT-29 (Figure 2b), read-out: Efflux ratio [Papp(BL-AP)/Papp(AP-BL)]): 0.6 | Papp A→B at 120 min ([3]; Caco-2/HT-29 co-culture, digested samples, read-out: Apparent permeability coefficient apical to basolateral, Papp(AP-BL)): 4.74 ± 0.02 ×10⁻⁶ cm/s | Papp basolateral to apical relative to Papp apical to basolateral ([4]; Caco-2/HT-29): two-fold lower | recovery at 2 h, 0.33 mg/mL ([5]; intestinal phase, pH 7.5, pancreatin and bile salts, read-out: Recovery percentage after intestinal digestion phase): 74.3 ± 7.4% | recovery at 10 min, 0.5 mg/mL ([5]; oral phase, pH 6.9, α-amylase, read-out: Recovery percentage after oral digestion phase): 35 ± 2.4% | recovery at 1 h ([5]; simulated in vitro digestion, gastric phase, pH 2, pepsin, read-out: Recovery percentage after gastric digestion phase): 49 ± 3.4% | Papp(AP-BL) ([1]; Caco-2 cells, ref Lan et al. [35]): 2.28 ± 0.09 × 10^−6 cm/s | Papp ([1]; Caco-2 monolayer, tested alone, ref Xie et al. [47]): 1.61 ×10⁻⁶ cm/s | Increase of Papp in combination with kaempferol [1, 9]: 1.33 fold | Increase of Papp in combination with quercetin [1, 9]: 2.38 fold | AUC(0-t) ([6]; rat plasma, isorhamnetin after acid hydrolysis, read-out: AUC0–1.5 h of isorhamnetin): 104 ± 4.89 µM·h | half-life ([6]; rat plasma, read-out: Elimination half-life t1/2 (converted)): 38.4 min | clearance ([6]; rat, read-out: CL plasma): 7.44 ± 1.21 mL/min | pKa [7]: 6.3 | Bioaccessibility after a simulated digestion ([8]; from almond skins, ref [19]): 25.1 ± 7.0%

isorhamnetin-3-O-glucosyl-rhamnosyl-pentoside [IGRP]
Efflux ratio [Papp(BL-AP)/Papp(AP-BL)] [4]: 5.2 | Apparent permeability coefficient apical to basolateral, Papp(AP-BL) [4]: 1.28 ± 0.02 × 10^−6 cm/s | Recovery percentage after gastric digestion phase ([5]; gastric phase, pH 2, pepsin): 96.2 ± 0.4 ^A,a % | Recovery percentage after intestinal digestion phase [5, 10]: 80.3 ± 1.9 ^A,b % | Recovery percentage after oral digestion phase ([5]; oral phase, pH 6.9, α-amylase): 93.8 ± 5.2 ^A,a %

C[C@@H]1O[C@@H](Oc2c(-c3ccc(O)c(O)c3)oc3cc(O)cc(O)c3c2=O)[C@H](O)[C@H](O)[C@H]1O [quercetin rhamnoside]
Recovery after intestinal digestion [8]: 47.9%

isorhamnetin-3-O-glucosyl-rhamnosyl-rhamnoside [IGRR]
Efflux ratio [Papp(BL-AP)/Papp(AP-BL)] [4]: 5.9 | Apparent permeability coefficient apical to basolateral, Papp(AP-BL) [4]: 1.03 ± 0.04 × 10^−6 cm/s | Recovery percentage after gastric digestion phase ([5]; gastric phase, pH 2, pepsin): 96.0 ± 4.4 ^A,a % | Recovery percentage after intestinal digestion phase [5, 10]: 79.5 ± 1.8 ^A,b % | Recovery percentage after oral digestion phase ([5]; oral phase, pH 6.9, α-amylase): 99.1 ± 3.8 ^A,a %

quercetin-3-glucosyl-rhamnoside
Decrease in levels after intestinal digestion phase compared with gastric step ([8]; ref Tenore et al. [37]): 18.6%

O=c1c(O)c(-c2ccc(O)c(O)c2)oc2cc(O)cc(O)c12 [quercetin as aglycone, quercetin]
AUC0–24 h ([2]; in humans, ref [54]): 2500 ± 2200 ng·h/mL | AUC0–1440 min of quercetin ([2]; ref Petersen et al. [56]): 62 ± 12 µmol·min/L

isorhamnetin-3-O-glucosyl-pentoside [IGP]
Efflux ratio [Papp(BL-AP)/Papp(AP-BL)] [4]: 3.0 | Recovery percentage after gastric digestion phase ([5]; gastric phase, pH 2, pepsin): 93.5 ± 3.3 ^A,a % | Recovery percentage after intestinal digestion phase [5, 10]: 73.3 ± 3.5 ^A,b % | Recovery percentage after oral digestion phase ([5]; oral phase, pH 6.9, α-amylase): 96.6 ± 4.7 ^A,a %

O=c1cc(-c2ccccc2)oc2cc(O)cc(O)c12 [chrysin]
Permeability basolateral to apical relative to apical to basolateral ([1]; ref [36]): two-fold higher

isorhamnetin-3-O-glucosyl-rhamnoside [IGR]
Efflux ratio [Papp(BL-AP)/Papp(AP-BL)] [4]: 3.1 | Apparent permeability coefficient apical to basolateral, Papp(AP-BL) [4]: 1.72 ± 0.01 × 10^−6 cm/s | Recovery percentage after gastric digestion phase ([5]; gastric phase, pH 2, pepsin): 96.8 ± 0.9 ^A,a % | Recovery percentage after intestinal digestion phase [5, 10]: 81.0 ± 4.6 ^A,b % | Recovery percentage after oral digestion phase ([5]; oral phase, pH 6.9, α-amylase): 99.6 ± 3.8 ^A,a % | Papp(AP-BL) ([1]; Caco-2 monolayers, ref Tian et al. [23]): 2.9e-07 cm/s

COc1ccc([C@@H]2CC(=O)c3c(O)cc(O[C@@H]4O[C@H](CO[C@@H]5O[C@@H](C)[C@H](O)[C@@H](O)[C@H]5O)[C@@H](O)[C@H](O)[C@H]4O)cc3O2)cc1O [hesperetin-7-O-rutinoside]
tmax ([2]; after oral consumption, ref [32]): 288 ± 132 min

C[C@@H]1O[C@@H](Oc2c(-c3cc(O)c(O)c(O)c3)oc3cc(O)cc(O)c3c2=O)[C@H](O)[C@H](O)[C@H]1O [myricetin-rhamnoside]
Recovery after a simulated digestion process ([8]; ref Ortega et al. [39]): 51.5% | Recovery after intestinal digestion [8]: 40.2%

COc1ccc([C@@H]2CC(=O)c3c(O)cc(O[C@@H]4O[C@H](CO)[C@@H](O)[C@H](O)[C@H]4O)cc3O2)cc1O [hesperetin-7-O-glucoside]
Bioavailability higher than hesperetin-7-O-rutinoside ([2]; human, in vivo): 76% | tmax ([2]; in vivo, po): 30 ± 6 min | Improvement of bioavailability on removing the rhamnose moiety from hesperetin-7-glucosyl-rhamnoside ([2]; in vivo): two-fold
